Data from paper PMC4352019, “Bioactivity-Guided Fractionation of an Antidiarrheal Chinese Herb Rhodiola kirilowii (Regel) Maxim Reveals (-)–Epicatechin-3-Gallate and (-)–Epigallocatechin-3-Gallate as Inhibitors of Cystic Fibrosis Transmembrane Conductance Regulator” (PLoS ONE, 2015).

Biological target: T1, Cystic fibrosis transmembrane conductance regulator (CFTR) (Homo sapiens, UniProt P13569)
T1 construct: human wild-type CFTR stably expressed in FRT cells
Assay: YFP-H148Q iodide influx fluorescence assay in CFTR-expressing FRT cells; supported by short-circuit current in rat colonic mucosa
Assay type: cell-based

T1 sequence (P13569 whole entry): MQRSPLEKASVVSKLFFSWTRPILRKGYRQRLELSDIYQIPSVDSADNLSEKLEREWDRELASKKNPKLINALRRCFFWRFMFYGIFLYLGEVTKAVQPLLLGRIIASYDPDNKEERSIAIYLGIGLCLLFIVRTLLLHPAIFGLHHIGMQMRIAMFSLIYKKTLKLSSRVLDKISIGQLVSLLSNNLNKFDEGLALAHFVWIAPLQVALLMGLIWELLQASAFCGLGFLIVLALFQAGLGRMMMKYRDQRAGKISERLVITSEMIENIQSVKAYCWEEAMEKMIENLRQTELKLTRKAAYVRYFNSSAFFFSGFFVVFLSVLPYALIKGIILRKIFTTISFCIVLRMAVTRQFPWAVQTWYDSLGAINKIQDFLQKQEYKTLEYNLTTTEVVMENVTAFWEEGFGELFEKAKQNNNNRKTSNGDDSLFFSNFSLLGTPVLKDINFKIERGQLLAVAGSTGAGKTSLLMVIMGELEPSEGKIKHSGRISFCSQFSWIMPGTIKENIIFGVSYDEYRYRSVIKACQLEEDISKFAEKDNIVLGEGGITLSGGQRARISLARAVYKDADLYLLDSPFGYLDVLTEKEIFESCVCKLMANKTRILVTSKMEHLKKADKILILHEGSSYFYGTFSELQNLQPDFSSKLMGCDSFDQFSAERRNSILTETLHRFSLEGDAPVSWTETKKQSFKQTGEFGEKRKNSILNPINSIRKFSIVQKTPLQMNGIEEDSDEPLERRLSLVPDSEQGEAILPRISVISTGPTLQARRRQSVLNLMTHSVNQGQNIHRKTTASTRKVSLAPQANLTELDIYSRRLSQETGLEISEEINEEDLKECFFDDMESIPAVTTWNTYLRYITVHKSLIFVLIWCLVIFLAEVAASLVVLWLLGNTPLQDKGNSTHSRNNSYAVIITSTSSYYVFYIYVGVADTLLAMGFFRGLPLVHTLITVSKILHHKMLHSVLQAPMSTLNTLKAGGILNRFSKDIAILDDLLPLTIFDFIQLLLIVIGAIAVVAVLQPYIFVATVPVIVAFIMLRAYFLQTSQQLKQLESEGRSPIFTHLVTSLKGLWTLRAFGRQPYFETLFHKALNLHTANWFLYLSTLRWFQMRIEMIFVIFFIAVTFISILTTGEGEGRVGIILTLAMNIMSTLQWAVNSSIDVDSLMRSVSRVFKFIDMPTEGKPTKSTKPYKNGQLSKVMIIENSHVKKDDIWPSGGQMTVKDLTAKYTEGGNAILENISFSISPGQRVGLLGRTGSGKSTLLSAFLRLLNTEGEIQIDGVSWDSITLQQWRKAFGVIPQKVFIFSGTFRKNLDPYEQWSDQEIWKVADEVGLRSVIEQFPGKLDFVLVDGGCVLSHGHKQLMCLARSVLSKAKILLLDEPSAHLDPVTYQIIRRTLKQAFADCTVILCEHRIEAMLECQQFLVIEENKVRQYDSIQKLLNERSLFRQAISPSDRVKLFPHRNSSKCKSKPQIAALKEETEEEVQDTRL

O=C(O[C@@H]1Cc2c(O)cc(O)cc2O[C@@H]1c1cc(O)c(O)c(O)c1)c1cc(O)c(O)c(O)c1 [C2, (-)–epigallocatechin-3-gallate]
IC50: ~100 µM
